Laboratory results reported in US9115126B2, “1H-[1,2,3]triazolo[4,5-c]pyridine-4-carbonitrile derivatives” (Merck Sharp & Dohme B.V., priority 2010, dated 2015).
Structures can show the parent of a compound that is named as a salt. Where two headings read alike, the source gives them in different places.

How the values were obtained:
[1] = Rat oral bioavailability; conditions: Sprague-Dawley, in vivo, SD rat, read-out: Bioavailability F
[2] = target: recombinant human Cathepsin S (Homo sapiens (Human), UniProt P25774); assay: Cathepsin S assay procedure (fluorogenic substrate Z-Val-Val-Arg-AMC); format: biochemical
recombinant human Cathepsin S, sequence (P25774 115-331): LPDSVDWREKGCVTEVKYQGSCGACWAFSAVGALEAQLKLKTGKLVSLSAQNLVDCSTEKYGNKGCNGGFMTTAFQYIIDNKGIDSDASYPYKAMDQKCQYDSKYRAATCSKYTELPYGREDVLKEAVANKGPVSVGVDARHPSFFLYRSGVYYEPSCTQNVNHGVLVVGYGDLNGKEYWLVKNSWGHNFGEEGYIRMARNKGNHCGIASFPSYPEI
Procedure: 25 μl of a 2 mg/l solution of activated recombinant human cathepsin S, in assay buffer, is then added to the well, yielding a final inhibitor concentration of 10 μM.
Enzyme activity is determined by measuring the fluorescence of the liberated aminomethylcoumarin at […] using 390 nm excitation, at 20 minutes. Percentage enzyme activity is calculated by comparison of this activity to that of a solution containing no inhibitor.

[3] = tested on: Human B lymphoblastoid cells (Jiyoye); assay: Cell based Lip10 assay (lip10 accumulation, anti-CD74 ELISA); conditions: 24 hours, relative to E64d/LHVS-treated cells, read-out: pEC50 (negative logarithm of the EC50 concentration), lip10 assay (converted)
Procedure: Human B lymphoblastoid cells (Jiyoye) were cultured in RPMI 1640 medium at a density of 500 000 cells/ml in 24-well plates. Cells were treated with a concentration range of compounds (0.001-10 μM) and vehicle alone (DMSO, 0.1% v/v). In order to generate positive control treatments separate wells were treated with 10 μM E64d & 0.1 μM LHVS. The cells were incubated at 37° C. in a humidified incubator containing 5% CO2. After 24 hours the plates were centrifuged at 150×g for five minutes and the media removed. Cells were lysed by adding 65 ul of ice-cold phosphate buffered saline (PBS) containing 1% (v/v) Triton X-100 and protease inhibitors and incubated on ice for 20 minutes. The samples were centrifuged at 18 000×g for 15 minutes at 4° C. and the resulting supernatants collected and stored at −80° C. until required. After measurement of protein concentration using a micro-BCA protein assay all samples were diluted to […] and 50 l of each sample were coated overnight at 4° C. onto wells of high protein-binding 96-well plates. The wells were washed once with PBS (200 l/well) and then incubated at room temperature for 2 hours with 10 μg/ml mouse anti-CD74 Pin.1 monoclonal antibody (50 l/well) in PBS containing 0.05% (v/v) Tween-20 (PBS-T) and 2% (w/v) BSA (PBS-T/BSA). Unbound antibody was then removed by washing three times with PBS-T and followed by the addition of rabbit anti-mouse IgG antibody conjugated to horseradish peroxidase. After washing five times with PBS-T 100 μl of tetramethylbenzidine substrate was added to each well and incubated for 10 minutes on a plate shaker. The reaction was stopped by the addition of 100 μl of 1M hydrochloric acid. Antibody binding was quantified by measuring the optical density (OD, 450 nm) using a Molecular Devices Spectramax Plus. The OD of vehicle-only treated cells was removed from all values and the data was expressed as a percentage of the OD generated from the mean E64d/LHVS-treated cells. The potency of compounds (EC50) was measured by calculating the concentration of inhibitor required to generate 50% inhibition relative to E64d/LHVS-treated cells.

[4] = pH5.5, fluorescence at 20 minutes, read-out: Cat S activity IC50
[5] = read-out: pIC50 (negative logarithm of the IC50 concentration) for inhibition of human cathepsin S (converted)

Structure (SMILES)	bioavailability [1] [%]	IC50 [2, 4] [nM]	EC50 [3] [nM]	IC50 [2, 5] [nM]
CN(C)C(=O)CN1CCC(CCOc2ccc(-c3cc4c(ncn4C)c(C#N)n3)cc2C(F)(F)F)CC1.Cl [EP 09150709.5 - Example 14d, reference compound]	9	8.3	–	–
CN(C)C(=O)CN1CCC(CCOc2ccc(-c3cc4c(nnn4C)c(C#N)n3)cc2C(F)(F)F)CC1.Cl [Example 2a, 6-(4-(2-(1-(2-dimethylamino-2-oxoethyl)piperidin-4-yl)ethoxy)-3-(trifluoromethyl)-phenyl)-1-methyl-1H-[1,2,3]triazolo[4,5-c]pyridine-4-carbonitrile hydrochloride]	42	1.5	< 100	< 10
Cn1cnc2c(C#N)nc(-c3ccc(CCCO)c(C(F)(F)F)c3)cc21 [WO 2009/010491, Example 15, reference compound]	–	234	–	–

The next lines start with the values.

bioavailability [1] [%]	IC50 [2, 4] [nM]	EC50 [3] [nM]	IC50 [2, 5] [nM]	Structure (SMILES)
–	–	< 100	< 10	Cn1nnc2c(C#N)nc(-c3ccc(OCCC4CCN(CC(C)(C)O)CC4)c(C(F)(F)F)c3)cc21 [Example 2d, 6-(4-(2-(1-(2-hydroxy-2-methylpropyl)piperidin-4-yl)ethoxy)-3-(trifluoromethyl)phenyl)-1-methyl-1H-[1,2,3]triazolo-[4,5-c]pyridine-4-carbonitrile hydrochloride]
–	–	< 100	< 10	Cn1nnc2c(C#N)nc(-c3ccc(OCCC4CCN(Cc5ncco5)CC4)c(C(F)(F)F)c3)cc21 [Example 3a, 1-methyl-6-(4-(2-(1-(oxazol-2-ylmethyl)piperidin-4-yl)ethoxy)-3-(trifluoromethyl)phenyl)-1H-[1,2,3]triazolo[4,5-c]pyridine-4-carbonitrile]
–	–	< 100	–	CN(C)C(=O)CN1CCN(CCOc2ccc(-c3cc4c(nnn4C)c(C#N)n3)cc2C(F)(F)F)CC1 [Example 37g, 2-(4-(2-(4-(4-cyano-1-methyl-1H-[1,2,3]triazolo[4,5-c]pyridin-6-yl)-2-(trifluoromethyl)phenoxy)ethyl)piperazin-1-yl)-N,N-dimethylacetamide dihydrochloride]
